Data taken from patent US10954214B2 (Janssen Pharmaceutica NV, priority 2016, dated 2021).

Assays:
[1] = tested on: IL6 secretion by OCI-LY3 ABC-DLBCL cells; assay: Human IL6 Mesoscale assay (OCI-LY3); type: cell-based; conditions: Homo sapiens, 24 h
Summary of the method: (§1)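 100,000 cells/well treated with compound in 9 twofold steps from 15 μM to 58.6 nM (0.3% DMSO) for 24 h at 37° C; supernatant cytokine measured by MSD electrochemiluminescence sandwich immunoassay. DMSO wells set maximum signal, BTK inhibitor RN486 (30 nM to 131 pM) set maximum inhibition.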

OCI-Ly3 cells = assay: 4-day proliferation assay, OCI-Ly3; type: cell-based, human; conditions: Homo sapiens, 96 h, 4 days incubation, CellTiterGLO, read-out: Anti-proliferation: OCI-LY-3 IC50
Summary of the method: (§2)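 Each line was plated at 10,000 cells per well for linear growth, with no beta-mercaptoethanol during the assay. OCI-Ly3 cells were below passage 10.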

[2] = target: full-length MALT1 protein (Strep-MALT1(1-824)-His) (Homo sapiens (Human), UniProt Q9UDY8); assay: MALT1 Biochemical Protease Assay (Ac-LRSR-AMC substrate); conditions: 10 nM FL MALT1, 200 μM Ac-LRSR-AMC, 4 h at RT; read-out: MALT1_Biochemical activity (Ac-LRSR-amc) IC50
Chain of full-length MALT1 protein (Strep-MALT1(1-824)-His) (Q9UDY8 whole entry): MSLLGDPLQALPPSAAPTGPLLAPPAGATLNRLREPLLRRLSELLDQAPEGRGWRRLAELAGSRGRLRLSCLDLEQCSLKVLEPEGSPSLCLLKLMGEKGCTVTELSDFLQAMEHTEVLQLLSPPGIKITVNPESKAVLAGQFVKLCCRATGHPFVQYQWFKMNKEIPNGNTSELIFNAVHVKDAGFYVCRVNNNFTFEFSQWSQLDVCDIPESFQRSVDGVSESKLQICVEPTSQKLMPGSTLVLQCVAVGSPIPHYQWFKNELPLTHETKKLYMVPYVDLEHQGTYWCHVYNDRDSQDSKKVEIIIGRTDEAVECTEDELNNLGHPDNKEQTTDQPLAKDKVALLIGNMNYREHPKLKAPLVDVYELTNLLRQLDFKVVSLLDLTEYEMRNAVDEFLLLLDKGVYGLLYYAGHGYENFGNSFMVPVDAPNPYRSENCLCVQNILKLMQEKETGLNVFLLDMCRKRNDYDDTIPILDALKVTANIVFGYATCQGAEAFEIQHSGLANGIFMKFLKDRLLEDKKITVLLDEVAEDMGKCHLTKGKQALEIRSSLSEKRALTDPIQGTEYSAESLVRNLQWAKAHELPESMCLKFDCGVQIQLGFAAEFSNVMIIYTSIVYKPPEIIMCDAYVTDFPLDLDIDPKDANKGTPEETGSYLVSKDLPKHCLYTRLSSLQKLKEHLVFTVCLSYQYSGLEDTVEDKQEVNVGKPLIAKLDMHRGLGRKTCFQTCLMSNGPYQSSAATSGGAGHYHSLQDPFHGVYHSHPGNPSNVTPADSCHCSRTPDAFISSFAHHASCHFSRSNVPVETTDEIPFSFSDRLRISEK
Summary of the method: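 Fluorescence from AMC release off the quenched LRSR substrate was read after a 4 h reaction at RT. Values were normalised to no-enzyme and uninhibited controls and fitted for IC50 and Hill coefficient.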

[3] = tested on: IL10 secretion by OCI-LY3 ABC-DLBCL cells; assay: Human IL10 Mesoscale assay (OCI-LY3); type: cell-based; conditions: Homo sapiens, 24 h
Summary of the method: as §1

TMD8 cells = assay: 4-day proliferation assay, TMD8; type: cell-based; conditions: Homo sapiens, 96 h, 4 days incubation, CellTiterGLO, read-out: Anti-proliferation: TMD-8 IC50
Summary of the method: as §2

Row | SMILES | IC50 [1] [nM] | IC50 (OCI-Ly3 cells) [nM] | IC50 [2] [nM] | IC50 [3] [nM] | IC50 (TMD8 cells) [nM]
1 | Cc1cnn(-c2ncc(NC(=O)c3cnn(-c4cccc5ncccc45)c3C(F)(F)F)cc2Cl)n1 [Cpd 125, N-(5-chloro-6-(4-methyl-2H-1,2,3-triazol-2-yl)pyridin-3-yl)-1-(quinolin-5-yl)-5-(trifluoromethyl)-1H-pyrazole-4-carboxamide] | 46 | 285 | 13 | 24 | 1020
2 | Nc1ncc(-n2ncc(C(=O)Nc3cnc(-n4nccn4)c(Cl)c3)c2C(F)(F)F)c2ccccc12 [Cpd 155, 1-(1-aminoisoquinolin-4-yl)-N-(5-chloro-6-(2H-1,2,3-triazol-2-yl)pyridin-3-yl)-5-(trifluoromethyl)-1H-pyrazole-4-carboxamide] | 93 | 302 | 19 | 68 | 1380
3 | N#Cc1cc(NC(=O)c2cnn(-c3cnc(N)c4c(F)cccc34)c2C(F)(F)F)cnc1-n1nccn1 [Cpd 111, 1-(1-amino-8-fluoroisoquinolin-4-yl)-N-(5-cyano-6-(2H-1,2,3-triazol-2-yl)pyridin-3-yl)-5-(trifluoromethyl)-1H-pyrazole-4-carboxamide] | 107 | 284 | 10 | 89 | 3310
4 | O=C(Nc1cnc(-n2nccn2)c(Cl)c1)c1cnn(-c2cncc3c(F)cccc23)c1C(F)(F)F [Cpd 117, N-(5-chloro-6-(2H-1,2,3-triazol-2-yl)pyridin-3-yl)-1-(8-fluoroisoquinolin-4-yl)-5-(trifluoromethyl)-1H-pyrazole-4-carboxamide] | 12 | 211 | 13 | 12 | 1580
5 | N#Cc1cc(NC(=O)c2cnn(-c3cccc4ncsc34)c2C(F)(F)F)cnc1-n1nccn1 [Cpd 114, 1-(benzo[d]thiazol-7-yl)-N-(5-cyano-6-(2H-1,2,3-triazol-2-yl)pyridin-3-yl)-5-(trifluoromethyl)-1H-pyrazole-4-carboxamide] | 34 | 193 | 11 | 29 | 2690
6 | O=C(Nc1cnc(-c2nnco2)c(Cl)c1)c1cnn(-c2cccc3ncccc23)c1C(F)(F)F [Cpd 192, N-(5-chloro-6-(1,3,4-oxadiazol-2-yl)pyridin-3-yl)-1-(quinolin-5-yl)-5-(trifluoromethyl)-1H-pyrazole-4-carboxamide] | 46 | 593 | 25 | 42 | 4570
7 | N#Cc1cc(NC(=O)c2cnn(-c3cccc4c(F)cccc34)c2C(F)(F)F)cnc1-n1nccn1 [Cpd 122, N-(5-cyano-6-(2H-1,2,3-triazol-2-yl)pyridin-3-yl)-1-(5-fluoronaphthalen-1-yl)-5-(trifluoromethyl)-1H-pyrazole-4-carboxamide] | 52 | 132 | 13 | 56 | 162
8 | Cc1nc(-n2nccn2)c(Cl)cc1NC(=O)c1cnn(-c2cncc3ccccc23)c1C(F)(F)F [Cpd 191, N-(5-chloro-2-methyl-6-(2H-1,2,3-triazol-2-yl)pyridin-3-yl)-1-(isoquinolin-4-yl)-5-(trifluoromethyl)-1H-pyrazole-4-carboxamide] | 22 | 866 | 36 | 13 | 912

Further lines, with some results ahead:

Row | IC50 [1] [nM] | IC50 (OCI-Ly3 cells) [nM] | IC50 [2] [nM] | IC50 [3] [nM] | SMILES | IC50 (TMD8 cells) [nM]
9 | 117 | 550 | 1290 | 79 | O=C(Nc1cnc(-n2nccn2)c(Cl)c1)c1cnn(-c2cnc(O)c3ccccc23)c1C(F)(F)F [Cpd 448, N-(5-chloro-6-(2H-1,2,3-triazol-2-yl)pyridin-3-yl)-1-(1-hydroxyisoquinolin-4-yl)-5-(trifluoromethyl)-1H-pyrazole-4-carboxamide] | 5620
10 | 58 | 1070 | 24 | 50 | CC(O)c1ncc(-n2ncc(C(=O)Nc3cnc(-n4nccn4)c(Cl)c3)c2C(F)(F)F)c2ccsc12 (stereo not shown) [Cpd 376, N-(5-chloro-6-(2H-1,2,3-triazol-2-yl)pyridin-3-yl)-1-(7-(1-hydroxyethyl)thieno[2,3-c]pyridin-4-yl)-5-(trifluoromethyl)-1H-pyrazole-4-carboxamide] | 1440
11 | 219 | 617 | 58 | 166 | N#Cc1cc(NC(=O)c2cnn(-c3ccc(F)c4ncccc34)c2C(F)(F)F)cnc1-n1nccn1 [Cpd 308, N-(5-cyano-6-(2H-1,2,3-triazol-2-yl)pyridin-3-yl)-1-(8-fluoroquinolin-5-yl)-5-(trifluoromethyl)-1H-pyrazole-4-carboxamide] | 4570
12 | 1020 | 631 | 39 | 692 | Cc1nc(-n2nccn2)c(C#N)cc1NC(=O)c1cnn(-c2cccc3nnsc23)c1C(F)(F)F [Cpd 314, 1-(benzo[d][1,2,3]thiadiazol-7-yl)-N-(5-cyano-2-methyl-6-(2H-1,2,3-triazol-2-yl)pyridin-3-yl)-5-(trifluoromethyl)-1H-pyrazole-4-carboxamide] | 1860
13 | 117 | 782 | 28 | 120 | O=C(Nc1cnc(-n2nccn2)c(Cl)c1)c1cnn(-c2cccc3ncc(Cl)n23)c1C(F)(F)F [Cpd 201, N-(5-chloro-6-(2H-1,2,3-triazol-2-yl)pyridin-3-yl)-1-(3-chloroimidazo[1,2-a]pyridin-5-yl)-5-(trifluoromethyl)-1H-pyrazole-4-carboxamide] | 3630
14 | 46 | 313 | 447 | 42 | O=C(Nc1cnc(-n2nccn2)c(Cl)c1)c1cnn(-c2cncc3sccc23)c1C(F)(F)F [Cpd 447, N-(5-chloro-6-(2H-1,2,3-triazol-2-yl)pyridin-3-yl)-1-(thieno[2,3-c]pyridin-4-yl)-5-(trifluoromethyl)-1H-pyrazole-4-carboxamide] | 2190
15 | 107 | 295 | 10 | 71 | O=C(Nc1cnc(-n2nccn2)c(Cl)c1)c1cnn(-c2ccnc3ccccc23)c1C(F)(F)F [Cpd 450, N-(5-chloro-6-(2H-1,2,3-triazol-2-yl)pyridin-3-yl)-1-(quinolin-4-yl)-5-(trifluoromethyl)-1H-pyrazole-4-carboxamide] | 2820
16 | 45 | 1150 | 58 | 31 | Cc1nc(-n2nccn2)c(C#N)cc1NC(=O)c1cnn(-c2cnc(N)c3ccccc23)c1C(F)(F)F [Cpd 338, 1-(1-aminoisoquinolin-4-yl)-N-(5-cyano-2-methyl-6-(2H-1,2,3-triazol-2-yl)pyridin-3-yl)-5-(trifluoromethyl)-1H-pyrazole-4-carboxamide] | 1440
17 | 380 | 1390 | 40 | 282 | N#Cc1cc(NC(=O)c2cnn(-c3cccc4nccn34)c2C(F)(F)F)cnc1-n1nccn1 [Cpd 200, N-(5-cyano-6-(2H-1,2,3-triazol-2-yl)pyridin-3-yl)-1-(imidazo[1,2-a]pyridin-5-yl)-5-(trifluoromethyl)-1H-pyrazole-4-carboxamide] | 7410
